According to ChEMBL document CHEMBL2429743, “Synthesis and antitumor properties of novel curcumin analogs” (Med Chem Res, 2013):
The source made the active and inactive calls. The calls are words filed in the database; no cut-off is given here.

Columns and labels:
[1] = tested on: PC-3; assay: cells; conditions: Homo sapiens, PC-3, 72 h
Description: Cytotoxicity against human PC3 cells after 72 hrs by MTT assay

[2] = tested on: MGC-803; assay: cells; conditions: Homo sapiens, MGC-803, 72 h
Description: Cytotoxicity against human MGC803 cells after 72 hrs by MTT assay

[3] = tested on: Bcap37; assay: Cytotoxicity against human Bcap37 cells after 72 hrs by MTT assay; conditions: Bcap37, 72 h
[4] = tested on: MGC-803; assay: Induction of apoptosis in human MGC803 cells assessed as DNA fragmentation at 10 uM after 12 hrs by EB staining-based agarose gel electrophoresis relative to control; assay type: functional, cell-based
[5] = tested on: MGC-803; assay: Induction of apoptosis in human MGC803 cells assessed as early and late apoptosis ratio at 10 uM after 24 hrs by annxinV-FITC/propidium iodide staining-based flow cytometry; assay type: functional
[6] = tested on: MGC-803; assay: Induction of apoptosis in human MGC803 cells assessed as early and late apoptosis ratio at 10 uM after 12 hrs by annxinV-FITC/propidium iodide staining-based flow cytometry; assay type: functional
[7] = tested on: MGC-803; assay: Induction of apoptosis in human MGC803 cells assessed as early and late apoptosis ratio at 10 uM after 6 hrs by annxinV-FITC/propidium iodide staining-based flow cytometry; assay type: functional
[8] = tested on: MGC-803; assay: Induction of apoptosis in human MGC803 cells assessed as early and late apoptosis ratio at 1 uM after 12 hrs by annxinV-FITC/propidium iodide staining-based flow cytometry; assay type: functional
[9] = tested on: MGC-803; assay: Induction of apoptosis in human MGC803 cells assessed as early and late apoptosis ratio at 5 uM after 6 hrs by annxinV-FITC/propidium iodide staining-based flow cytometry; assay type: functional
[10] = tested on: MGC-803; assay: Induction of apoptosis in human MGC803 cells assessed as early and late apoptosis ratio at 1 uM after 24 hrs by annxinV-FITC/propidium iodide staining-based flow cytometry; assay type: functional
[11] = tested on: MGC-803; assay: Induction of apoptosis in human MGC803 cells assessed as early and late apoptosis ratio at 5 uM after 12 hrs by annxinV-FITC/propidium iodide staining-based flow cytometry; assay type: functional
[12] = tested on: MGC-803; assay: Induction of apoptosis in human MGC803 cells assessed as early and late apoptosis ratio at 5 uM after 24 hrs by annxinV-FITC/propidium iodide staining-based flow cytometry; assay type: functional
[13] = tested on: PC-3; assay: Induction of apoptosis in human PC3 cells assessed as chromatin condensation at 10 uM after 12 hrs by Hoechst 33258 staining-based fluorescence microscopic analysis; assay type: functional, cell-based
[14] = tested on: Bcap37; assay: Induction of apoptosis in human Bcap37 cells assessed as smaller nuclei at 10 uM after 12 hrs by Hoechst 33258 staining-based fluorescence microscopic analysis; assay type: functional, cell-based
[15] = tested on: PC-3; assay: Induction of apoptosis in human PC3 cells assessed as smaller nuclei at 10 uM after 12 hrs by Hoechst 33258 staining-based fluorescence microscopic analysis; assay type: functional, cell-based
[16] = tested on: MGC-803; assay: Induction of apoptosis in human MGC803 cells assessed as chromatin condensation at 10 uM after 12 hrs by Hoechst 33258 staining-based fluorescence microscopic analysis; assay type: functional, cell-based
[17] = tested on: Bcap37; assay: Induction of apoptosis in human Bcap37 cells assessed as chromatin condensation at 10 uM after 12 hrs by Hoechst 33258 staining-based fluorescence microscopic analysis; assay type: functional, cell-based
[18] = tested on: MGC-803; assay: Induction of apoptosis in human MGC803 cells assessed as smaller nuclei at 10 uM after 12 hrs by Hoechst 33258 staining-based fluorescence microscopic analysis; assay type: functional, cell-based
[19] = tested on: MGC-803; assay: Induction of apoptosis in human MGC803 cells assessed as early and late apoptosis ratio at 1 uM after 6 hrs by annxinV-FITC/propidium iodide staining-based flow cytometry; assay type: functional
[20] = Selectivity index, ratio of IC50 for mouse NIH3T3 cells to IC50 for human Bcap37 cells; assay type: functional
[21] = Selectivity index, ratio of IC50 for mouse NIH3T3 cells to IC50 for human PC3 cells; assay type: functional
[22] = Selectivity index, ratio of IC50 for mouse NIH3T3 cells to IC50 for human MGC803 cells; assay type: functional
[23] = tested on: Bcap37; assay: Induction of apoptosis in human Bcap37 cells assessed as early and late apoptic cells at 5 uM after 12 hrs by AO/EB staining-based fluorescence microscopic analysis; assay type: functional, cell-based
[24] = tested on: Bcap37; assay: Induction of apoptosis in human Bcap37 cells assessed as necrotic cells at 5 uM after 12 hrs by AO/EB staining-based fluorescence microscopic analysis; assay type: functional, cell-based
[25] = tested on: Bcap37; assay: Induction of apoptosis in human Bcap37 cells assessed as pyknotic nuclei at 5 uM after 12 hrs by Hoechst 33258 staining-based fluorescence microscopic analysis; assay type: functional, cell-based
[26] = tested on: PC-3; assay: Induction of apoptosis in human PC3 cells assessed as early and late apoptic cells at 5 uM after 12 hrs by AO/EB staining-based fluorescence microscopic analysis; assay type: functional, cell-based
[27] = tested on: MGC-803; assay: Induction of apoptosis in human MGC803 cells assessed as early and late apoptic cells at 5 uM after 12 hrs by AO/EB staining-based fluorescence microscopic analysis; assay type: functional, cell-based
[28] = tested on: MGC-803; assay: Induction of apoptosis in human MGC803 cells assessed as pyknotic nuclei at 5 uM after 12 hrs by Hoechst 33258 staining-based fluorescence microscopic analysis; assay type: functional, cell-based
[29] = tested on: PC-3; assay: Induction of apoptosis in human PC3 cells assessed as pyknotic nuclei at 5 uM after 12 hrs by Hoechst 33258 staining-based fluorescence microscopic analysis; assay type: functional, cell-based
[30] = tested on: MGC-803; assay: Induction of apoptosis in human MGC803 cells assessed as chromatin condensation at 5 uM after 12 hrs by Hoechst 33258 staining-based fluorescence microscopic analysis; assay type: functional, cell-based
[31] = tested on: MGC-803; assay: Induction of apoptosis in human MGC803 cells assessed as early and late apoptosis ratio at 1 to 10 uM by annxinV-FITC/propidium iodide staining-based flow cytometry; assay type: functional, cell-based; conditions: TDE = time-dependent effect
[32] = tested on: Bcap37; assay: Induction of apoptosis in human Bcap37 cells assessed as chromatin condensation at 5 uM after 12 hrs by Hoechst 33258 staining-based fluorescence microscopic analysis; assay type: functional, cell-based
[33] = tested on: PC-3; assay: Induction of apoptosis in human PC3 cells assessed as necrotic cells at 5 uM after 12 hrs by AO/EB staining-based fluorescence microscopic analysis; assay type: functional, cell-based
[34] = tested on: MGC-803; assay: Induction of apoptosis in human MGC803 cells assessed as DNA fragmentation at 5 uM after 12 hrs by EB staining-based agarose gel electrophoresis relative to control; assay type: functional, cell-based
[35] = tested on: MGC-803; assay: Induction of apoptosis in human MGC803 cells assessed as necrotic cells at 5 uM after 12 hrs by AO/EB staining-based fluorescence microscopic analysis; assay type: functional, cell-based
[36] = tested on: PC-3; assay: Induction of apoptosis in human PC3 cells assessed as chromatin condensation at 5 uM after 12 hrs by Hoechst 33258 staining-based fluorescence microscopic analysis; assay type: functional, cell-based

O=C(/C=C/c1ccc(Cl)cc1)/C=C/c1ccc(Oc2ncnc3ccccc23)cc1
IC50 [1]: 7.35 µM
IC50 [2]: 4.84 µM
IC50 [3]: 11.3 µM

CC(=O)/C=C/c1ccc(Oc2ncnc3c(C)cccc23)cc1
IC50 [1]: 25.8 µM
IC50 [2]: 19.9 µM
IC50 [3]: 30.3 µM

CC(=O)/C=C/c1ccc(Oc2ncnc3ccccc23)cc1
IC50 [1]: 21.3 µM
IC50 [2]: 18.4 µM
IC50 [3]: 28.9 µM

Cc1cccc2c(Oc3ccc(/C=C/C(=O)/C=C/c4ccc(F)cc4)cc3)ncnc12
IC50 [1]: 7.36 µM
IC50 [2]: 4.36 µM
IC50 [3]: 9.25 µM

O=C(/C=C/c1ccc(Oc2ncnc3ccccc23)cc1)/C=C/c1ccc(Cl)cc1Cl
IC50 [1]: 4.57 µM
IC50 [2]: 2.77 µM
IC50 [3]: 10.8 µM

CC[C@@]1(O)C(=O)OCc2c1cc1n(c2=O)Cc2cc3cc(O)ccc3nc2-1 [HYDROXYCAMPTOTHECIN]
Activity [4]: Active
Activity [5]: 24.5%
Activity [6]: 8.6%
Activity [7]: 3%
Activity [8]: 2%
Activity [9]: 1.8%
Activity [10]: 4.7%
Activity [11]: 5.8%
Activity [12]: 7.6%
Activity [13]: Active
Activity [14]: Active
Activity [15]: Active
Activity [16]: Active
Activity [17]: Active
Activity [18]: Active
Activity [19]: 1.2%

Cc1cccc2c(Oc3ccc(/C=C/C(=O)/C=C/c4cc([N+](=O)[O-])ccc4Cl)cc3)ncnc12
IC50 [1]: 2.79 µM
IC50 [2]: 1.86 µM
IC50 [3]: 7.89 µM

COc1ccc(OC)c(/C=C/C(=O)/C=C/c2ccc(Oc3ncnc4c(C)cccc34)cc2)c1
IC50 [1]: 4.71 µM
IC50 [2]: 2.32 µM
IC50 [3]: 8.17 µM

Cc1cccc2c(Oc3ccc(/C=C/C(=O)/C=C/c4ccc(Cl)cc4)cc3)ncnc12
IC50 [1]: 8.79 µM
IC50 [2]: 8.1 µM
IC50 [3]: 12.3 µM

COc1ccc(OC)c(/C=C/C(=O)/C=C/c2ccc(Oc3ncnc4ccccc34)cc2)c1
IC50 [1]: 2.96 µM
Ratio IC50 [20]: <2
Ratio IC50 [21]: 4.46
Ratio IC50 [22]: 6.57
IC50 [2]: 2.01 µM
IC50 [3]: 7.81 µM

Cc1nn(C)c(Cl)c1/C=C/C(=O)/C=C/c1ccc(Oc2ncnc3ccccc23)cc1
IC50 [1]: 11.5 µM
IC50 [2]: 9.31 µM
IC50 [3]: 18.9 µM

Cc1nn(C)c(Cl)c1/C=C/C(=O)/C=C/c1ccc(Oc2ncnc3c(C)cccc23)cc1
IC50 [1]: 16.4 µM
IC50 [2]: 11.6 µM
IC50 [3]: 21.3 µM

COc1ccccc1/C=C/C(=O)/C=C/c1ccc(Oc2ncnc3ccccc23)cc1
IC50 [1]: 3.66 µM
Ratio IC50 [20]: <2
Ratio IC50 [21]: 3.4
Ratio IC50 [22]: 6.13
IC50 [2]: 2.03 µM
IC50 [3]: 7.82 µM

O=C(/C=C/c1ccc(F)cc1)/C=C/c1ccc(Oc2ncnc3ccccc23)cc1
IC50 [1]: 5.62 µM
IC50 [2]: 3.84 µM
IC50 [3]: 8.53 µM

COc1ccccc1/C=C/C(=O)/C=C/c1ccc(Oc2ncnc3c(C)cccc23)cc1
IC50 [1]: 5.17 µM
IC50 [2]: 3.76 µM
IC50 [3]: 9.26 µM

O=C(/C=C/c1ccc(Oc2ncnc3ccccc23)cc1)/C=C/c1cc([N+](=O)[O-])ccc1Cl
IC50 [1]: 1.34 µM
Activity [23]: Active
Activity [24]: Active
Activity [25]: Active
Activity [26]: Active
Activity [27]: Active
Activity [5]: 27.1%
Activity [6]: 10.5%
Ratio IC50 [20]: 5.72
Activity [7]: 6.4%
Activity [28]: Active
Activity [29]: Active
Activity [30]: Active
Activity [8]: 2.8%
Activity [31]: tde
Activity [32]: Active
Activity [9]: 4.1%
Ratio IC50 [21]: >8
Activity [10]: 5.3%
Activity [11]: 6.2%
Activity [12]: 8.9%
Ratio IC50 [22]: >8
Activity [33]: Active
Activity [34]: Active
IC50 [2]: 0.86 µM
Activity [35]: Active
Activity [36]: Active
IC50 [3]: 3.9 µM
Activity [19]: 2.4%

COc1cccc2c1C(=O)c1c(O)c3c(c(O)c1C2=O)C[C@@](O)(C(=O)CO)C[C@@H]3O[C@H]1C[C@H](N)[C@H](O)[C@H](C)O1 [DOXORUBICIN]
IC50 [1]: 1.01 µM
Ratio IC50 [20]: <2
Ratio IC50 [21]: <2
Ratio IC50 [22]: <2
IC50 [2]: 0.74 µM
IC50 [3]: 1.9 µM

Cc1cccc2c(Oc3ccc(/C=C/C(=O)/C=C/c4ccc(Cl)cc4Cl)cc3)ncnc12
IC50 [1]: 15.2 µM
IC50 [2]: 5.13 µM
IC50 [3]: 32.8 µM
